The results in this text go back to publication PMC11152041, “Tricarbonyl rhenium(I) complexes with 8-hydroxyquinolines: structural, chemical, antibacterial, and anticancer characteristics” (RSC Advances, 2024).

≈ marks a conversion by molar mass, not a printed value. Where two headings read alike, the source gives them in different places.

Series [1] concerns E. coli ATCC25922. Put plainly: Broth microdilution MIC/MBC (ISO 20776-1). Format: cell-based, Escherichia coli. Conditions: for MBC: E. coli ATCC25922, >99.99% reduction of growth; for MIC: E. coli ATCC25922, MH II broth, 35 °C, 24 h. On the procedure: (§1) Bacterial strains and cell lines were obtained from the American Type Culture Collection (ATCC).[59] […] Antimicrobial activity was tested in Müeller Hinton (MH) II broth (Becton Dickinson). For anticancer activity assay, the following reagents from Merk were used: 3-(4,5-dimethylthiazol-2-yl)-2,5-diphenyltetrazolium bromide (MTT), sodium dodecyl sulfate (SDS) and HCl. The solubilized formazan product was spectrophotometrically quantified in a Power Wave XS (Bio Tek, Winooski, VT, USA) microplate reader. The HL-60 and PC-3 cells were grown in RPMI-1640 medium with stable glutamine (Biowest) supplemented with 10% (v/v) of heat-inactivated fetal bovine serum (FBS, Biowest) and 1% (v/v) of antibiotic–antimycotic solution (Biowest). The SKOV-3 cells were grown in McCoy's 5A medium with L-glutamine (Biowest) supplemented with 10% (v/v) heat-inactivated FBS, and 1% (v/v) antibiotic–antimycotic solution. The MCF-7 cells were grown in Eagle's MEM (Minimal Essential Medium) medium with stable glutamine (Biowest), supplemented with 10% (v/v) heat-inactivated FBS 1% (v/v) MEM non-essential amino acids (Biowest), 1% (v/v) antibiotic–antimycotic solution, and 1 mM sodium pyruvate (Merck). The MCF-10A cells were grown in Ham's F-12K (Kaighn's) Medium with stable glutamine (Gibco) supplemented with 5% (v/v) heat-inactivated FBS, 1% (v/v) MEM non-essential amino acids, 1% (v/v) antibiotic–antimycotic solution, 5 μg mL^−1 insulin, 0.04 μg mL^−1 hydrocortisone (Merck), and 15 ng mL^−1 human Epidermal Growth Factor (hEGF, PeproTech).
(§2) The in vitro antibacterial activity was determined according to ISO 20776-1.[88] Among the tested microorganisms were Gram-negative rods, E. coli ATCC25922 and P. aeruginosa ATCC27853, and Gram-positive cocci, S. aureus ATCC29213 and E. faecalis ATCC29212. The selected bacterial species represented the most common etiologic agents of human infections and are used for quality control of antimicrobial susceptibility testing.[89] The test procedure included the determination of MICs and MBCs of complexes and their free ligands. MIC and MBC determinations of ciprofloxacin, as the reference antibiotic, were also performed. All compounds were dissolved in DMSO to reach the maximum 512 mg L^−1 concentration. […] The assay consisted of preparing 2-fold dilutions of the substances in a liquid growth medium MH II and inoculating them with a standardized suspension of microorganisms at a McFarland density of 0.5 (≈10^8 CFU mL^−1). The culture plates were incubated at 35 °C for 24 h. The lowest concentration of the compound inhibiting visible bacterial growth was specified as MIC, and the concentration that reduced bacterial growth by >99.99% after counting live bacteria on the plates compared to the positive control was defined as MBC.
Background: Broth dilution looks for growth in wells or tubes with falling amounts of substance.

Series [2] relates to P. aeruginosa ATCC27853. Put plainly: Broth microdilution MIC/MBC (ISO 20776-1). Format: cell-based, Pseudomonas aeruginosa. Conditions: for MBC: P. aeruginosa ATCC27853, >99.99% reduction of growth; for MIC: P. aeruginosa ATCC27853, MH II broth, 35 °C, 24 h. On the procedure:
as §1, §2

The test system of series [3] is S. aureus ATCC29213. Put plainly: Broth microdilution MIC/MBC (ISO 20776-1). The class given is cell-based, Staphylococcus aureus. Conditions: for MBC: S. aureus ATCC29213, >99.99% reduction of growth; for MIC: S. aureus ATCC29213, MH II broth, 35 °C, 24 h. The procedure: as §1, §2
Series [4] relates to E. faecalis ATCC29212. In words: Broth microdilution MIC/MBC (ISO 20776-1). The class given is cell-based, Enterococcus faecalis. Particulars: for MBC: E. faecalis ATCC29212, >99.99% reduction of growth; for MIC: E. faecalis ATCC29212, MH II broth, 35 °C, 24 h. On the procedure:
as §1, §2

In series [5] the test system is HL-60 cells. In words: MTT cytotoxicity assay. The class given is cell-based, human. Conditions: MTT, read-out: IC50 ± SD. On the procedure: (§3) The cytotoxicities for studied compounds were evaluated against leukemia cells (HL-60), as well as ovarian (SKOV-3), prostate (PC-3), and breast (MCF-7) cancer cell lines. The potential selectivity of these compounds towards cancer cells was assessed by determination of their cytotoxicities towards breast non-cancerous cells (MCF-10A). For comparison, cisplatin was added to the cytotoxicity assays.
as §1
(§4) The cells were cultured in 96-well plates and incubated with the tested compound for 24 h and 48 h. All experiments were performed in exponentially growing cultures. The 0.03 M solutions of the compounds in DMSO were appropriately diluted using culture media. The maximal final concentration of DMSO in each well was 0.1%. The cytotoxicity of the compounds was measured by determining cell viability with a colorimetric test based on 3-(4,5-dimethylthiazol-2-yl)-2,5-diphenyltetrazolium bromide (MTT). MTT stock solution was added to each well to a final concentration of 0.5 mg mL^−1 and incubated for 4 h at 37 °C; following formazan crystals were dissolved by the addition of sodium dodecyl sulfate (SDS) solution (10% SDS in 0.001 M HCl). MTT and SDS were added directly to the cell culture. The compound's IC50 values (concentration required to reduce the viability of cells by 50% compared with the control cells) were calculated from the data obtained with the MTT assay.
For orientation: Tetrazolium assays rely on reduction of a dye to a coloured formazan, in cell work by metabolically active cells.

The test system of series [6] is MCF-7 cells. In words: MTT cytotoxicity assay. Particulars: MTT, read-out: IC50 ± SD. Format: cell-based, human. The procedure: as §3, §1, §4
The subject of series [7] is PC-3 cells. Put plainly: MTT cytotoxicity assay. Format: cell-based, human. Conditions: MTT, read-out: IC50 ± SD. On the procedure:
as §3, §1, §4

Series [8] has as its system SKOV-3 cells. In words: MTT cytotoxicity assay. The class given is cell-based, human. Conditions: MTT, read-out: IC50 ± SD. On the procedure:
as §3, §1, §4

Series [9] relates to MCF-10A cells. Put plainly: MTT cytotoxicity assay. Conditions: for IC50: read-out: IC50 ± SD, MCF-10A (non-cancerous), MTT, * precipitation of the complex. On the procedure:
as §3, §1, §4

Turning to `O=C(O)c1cn(C2CC2)c2cc(N3CCNCC3)c(F)cc2c1=O` [CIP, ciprofloxacin, reference compound], the MBC in [1] (Escherichia coli, read-out: MBC) came to 4 µg/mL (≈ 12.1 µM); in [2] (Pseudomonas aeruginosa, read-out: MBC) it was 8 µg/mL (≈ 24.1 µM); in series [3] (Staphylococcus aureus, read-out: MBC), 1 µg/mL (≈ 3.02 µM); in series [4] (Enterococcus faecalis, read-out: MBC), 8 µg/mL (≈ 24.1 µM). Moreover, the MIC in series [1] (Escherichia coli, read-out: MIC) is less than 0.5 µg/mL; in [2] (Pseudomonas aeruginosa, read-out: MIC), 1 µg/mL (≈ 3.02 µM); in [3] (Staphylococcus aureus, read-out: MIC), less than 0.5 µg/mL; in [4] (Enterococcus faecalis, read-out: MIC), 2 µg/mL (≈ 6.04 µM).

For the compound `Cc1ncc[nH]1.[C-]#[O+].[C-]#[O+].[C-]#[O+].[Re][O]c1cccc2cccnc12` [complex 2, [Re(CO)3(Q)MeHim]], the minimal bactericidal concentration (MBC) is >512/>512 mg L^−1 in series [1], >512/>512 mg L^−1 in series [2], more than 512 µg/mL in series [3] and more than 512 µg/mL in series [4]. The MIC was >512/>512 mg L^−1 in series [1], >512/>512 mg L^−1 in series [2], 256 µg/mL in series [3] and 128 µg/mL in series [4]. For the same compound, the IC50 was 10 ± 1 µM in series [5] (HL-60, 24 h); 9 ± 1 µM in series [5] (HL-60, 48 h); 36 ± 3 µM in series [6] (MCF-7, 24 h); 30 ± 1 µM in series [6] (MCF-7, 48 h); 34 ± 3 µM in [7] (PC-3, 24 h); 35 ± 2 µM in [7] (PC-3, 48 h). Further, the IC50 is more than 100 µM in series [8] (SKOV-3, 24 h); 44 ± 1 µM in series [8] (SKOV-3, 48 h); 31 ± 4 µM in [9] (24 h); 29 ± 5 µM in series [9] (48 h).

`Cc1cc(C)[nH]n1.Cc1ccc2cccc([O][Re])c2n1.[C-]#[O+].[C-]#[O+].[C-]#[O+]` [complex 7, [Re(CO)3(MeQ)Hdmpz]]: the MBC in [1] is >512/>512 mg L^−1; in series [2], >512/>512 mg L^−1; in series [3], >512/>512 mg L^−1; in [4], more than 512 µg/mL. Also, the MIC was >512/>512 mg L^−1 in [1], >512/>512 mg L^−1 in [2], >512/>512 mg L^−1 in series [3] and 128 µg/mL in [4]. The IC50 in series [5] (HL-60, 24 h) turned out to be 13 ± 1 µM; in series [5] (HL-60, 48 h), 12 ± 1 µM; in [6] (MCF-7, 24 h), 27 ± 8 µM; in series [6] (MCF-7, 48 h), 19 ± 4 µM; in [7] (PC-3, 24 h) it was 16 ± 2 µM; in [7] (PC-3, 48 h), 18 ± 4 µM. Moreover, the IC50 in series [8] (SKOV-3, 24 h) is 29 ± 5 µM; in [8] (SKOV-3, 48 h), 26 ± 5 µM; in series [9] (24 h), more than 25 µM; in [9] (48 h), more than 25 µM. Moreover, the “solubility in the cytotoxicity assay” value in series [9] (MCF-10A cell line culture medium) is listed as “precipitated at higher concentrations”.

Broadly, the MBC is the lowest tested concentration that kills the bacteria rather than only halting them. In general, MIC refers to the lowest concentration that inhibits growth of the organism. By IC50 is commonly meant the concentration needed to halve the response being measured.
